Measured values: patent US20250026778A1 (TIUMBIO CO., LTD., priority 2021, published 2025)

Target: T1, his-galectin-3 (Homo sapiens, UniProt P17931)
T1 construct: purchased Abcam
Test: TR-FRET assay (in vitro galectin-3 binding inhibitory activity test)
Conditions: Table 1; compound at 20 μM; 60 nM his-galectin-3, 15 nM biotin-ASF; read-out: % Inhibitory activity (at 20 μM)
How it was run: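 Compound is premixed with his-galectin-3 (60 nM final), then biotin-ASF (15 nM), Tb anti-His antibody (2 nM) and streptavidin-d2 (20 nM) are added. After at least 3.5 hours at RT in HEPES/NaCl buffer with Tween 20 and BSA, TR-FRET is read at 615/665 nm. DMSO serves as the uninhibited control, ASF omission as background.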

T1 sequence (P17931 whole entry): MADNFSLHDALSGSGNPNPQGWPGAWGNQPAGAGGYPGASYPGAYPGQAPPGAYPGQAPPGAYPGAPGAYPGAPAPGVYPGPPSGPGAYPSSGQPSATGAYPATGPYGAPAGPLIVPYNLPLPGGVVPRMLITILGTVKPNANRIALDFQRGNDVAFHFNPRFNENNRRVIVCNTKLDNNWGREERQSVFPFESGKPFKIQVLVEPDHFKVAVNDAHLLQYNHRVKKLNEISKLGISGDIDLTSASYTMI

OC[C@H]1O[C@@]2(CCCCS2)[C@H](O)[C@@H](n2cc(-c3cc(F)c(F)c(F)c3)nn2)[C@H]1O [Compound A109, (2R,3R,4S,5R,6R)-2-(hydroxymethyl)-4-(4-(3,4,5-trifluorophenyl)-1H-1,2,3-triazol-1-yl)-1-oxa-7-thiaspiro[5.5]undecane-3,5-diol] and OC[C@H]1O[C@@]2(CCCNC2)[C@H](O)[C@@H](n2cc(-c3cc(F)c(F)c(F)c3)nn2)[C@H]1O [Compound A110, (2R,3R,4S,5R,6R)-2-(hydroxymethyl)-4-(4-(3,4,5-trifluorophenyl)-1H-1,2,3-triazol-1-yl)-1-oxa-8-azaspiro[5.5]undecane-3,5-diol] cannot be ordered by inhibition at 20 µM: under 25% for the first, under 25% for the second.

Compared with O=C(Cc1cccc2ccccc12)N[C@@H]1CCO[C@]12O[C@H](CO)[C@H](O)[C@H](n1cc(-c3cc(F)c(F)c(F)c3)nn1)[C@H]2O [Compound A111, N-((4R,5S,7R,8R,9S,10R)-8,10-dihydroxy-7-(hydroxymethyl)-9-(4-(3,4,5-trifluorophenyl)-1H-1,2,3-triazol-1-yl)-1,6-dioxaspiro[4.5]decan-4-yl)-2-(naphthalen-1-yl)acetamide], O=C(Cc1ccc2ccccc2c1)N[C@@H]1CCO[C@]12O[C@H](CO)[C@H](O)[C@H](n1cc(-c3cc(F)c(F)c(F)c3)nn1)[C@H]2O [Compound A115, N-((4R,5S,7R,8R,9S,10R)-8,10-dihydroxy-7-(hydroxymethyl)-9-(4-(3,4,5-trifluorophenyl)-1H-1,2,3-triazol-1-yl)-1,6-dioxaspiro[4.5]decan-4-yl)-2-(naphthalen-2-yl)acetamide] is higher in inhibition at 20 µM: 25 to 50% for the first, 50 to 75% for the second.

First: O=C(Cc1ccccc1Cl)N[C@@H]1CCO[C@]12O[C@H](CO)[C@H](O)[C@H](n1cc(-c3cc(F)c(F)c(F)c3)nn1)[C@H]2O [Compound A112, 2-(2-chlorophenyl)-N-((4R,5S,7R,8R,9S,10R)-8,10-dihydroxy-7-(hydroxymethyl)-9-(4-(3,4,5-trifluorophenyl)-1H-1,2,3-triazol-1-yl)-1,6-dioxaspiro[4.5]decan-4-yl)acetamide]
Second: OC[C@H]1O[C@]2(OCC[C@H]2NCc2ccccc2O)[C@H](O)[C@@H](n2cc(-c3cc(F)c(F)c(F)c3)nn2)[C@H]1O [Compound A125, (4R,5S,7R,8R,9S,10R)-4-((2-hydroxybenzyl)amino)-7-(hydroxymethyl)-9-(4-(3,4,5-trifluorophenyl)-1H-1,2,3-triazol-1-yl)-1,6-dioxaspiro[4.5]decane-8,10-diol]
The inhibition at 20 µM of the first is higher: 50 to 75% for the first, under 25% for the second.

O=C(Cc1cccc(F)c1)N[C@@H]1CCO[C@]12O[C@H](CO)[C@H](O)[C@H](n1cc(-c3cc(F)c(F)c(F)c3)nn1)[C@H]2O [Compound A113, N-((4R,5S,7R,8R,9S,10R)-8,10-dihydroxy-7-(hydroxymethyl)-9-(4-(3,4,5-trifluorophenyl)-1H-1,2,3-triazol-1-yl)-1,6-dioxaspiro[4.5]decan-4-yl)-2-(3-fluorophenyl)acetamide] and COc1cccc(CC(=O)N[C@@H]2CCO[C@]23O[C@H](CO)[C@H](O)[C@H](n2cc(-c4cc(F)c(F)c(F)c4)nn2)[C@H]3O)c1 [Compound A116, N-((4R,5S,7R,8R,9S,10R)-8,10-dihydroxy-7-(hydroxymethyl)-9-(4-(3,4,5-trifluorophenyl)-1H-1,2,3-triazol-1-yl)-1,6-dioxaspiro[4.5]decan-4-yl)-2-(3-methoxyphenyl)acetamide] fall in the same range of inhibition at 20 µM: 50 to 75% for the first, 50 to 75% for the second.

First: O=C(N[C@@H]1CCO[C@]12O[C@H](CO)[C@H](O)[C@H](n1cc(-c3cc(F)c(F)c(F)c3)nn1)[C@H]2O)C1(c2ccccc2)CC1 [Compound A114, N-((4R,5S,7R,8R,9S,10R)-8,10-dihydroxy-7-(hydroxymethyl)-9-(4-(3,4,5-trifluorophenyl)-1H-1,2,3-triazol-1-yl)-1,6-dioxaspiro[4.5]decan-4-yl)-1-phenylcyclopropanecarboxamide]
Second: O=C(N[C@@H]1CCO[C@]12O[C@H](CO)[C@H](O)[C@H](n1cc(-c3cc(F)c(F)c(F)c3)nn1)[C@H]2O)c1cc2ccccc2s1 [Compound A124, N-((4R,5S,7R,8R,9S,10R)-8,10-dihydroxy-7-(hydroxymethyl)-9-(4-(3,4,5-trifluorophenyl)-1H-1,2,3-triazol-1-yl)-1,6-dioxaspiro[4.5]decan-4-yl)benzo[b]thiophene-2-carboxamide]
The inhibition at 20 µM of the first is lower: under 25% for the first, 50 to 75% for the second.

First: O=C(Cc1ccc(Cl)cc1)N[C@@H]1CCO[C@]12O[C@H](CO)[C@H](O)[C@H](n1cc(-c3cc(F)c(F)c(F)c3)nn1)[C@H]2O [Compound A117, 2-(4-chlorophenyl)-N-((4R,5S,7R,8R,9S,10R)-8,10-dihydroxy-7-(hydroxymethyl)-9-(4-(3,4,5-trifluorophenyl)-1H-1,2,3-triazol-1-yl)-1,6-dioxaspiro[4.5]decan-4-yl)acetamide]
Second: OC[C@H]1O[C@]2(OCC[C@H]2NCc2cc(Cl)ccc2O)[C@H](O)[C@@H](n2cc(-c3cc(F)c(F)c(F)c3)nn2)[C@H]1O [Compound A126, (4R,5S,7R,8R,9S,10R)-4-((5-chloro-2-hydroxybenzyl)amino)-7-(hydroxymethyl)-9-(4-(3,4,5-trifluorophenyl)-1H-1,2,3-triazol-1-yl)-1,6-dioxaspiro[4.5]decane-8,10-diol]
The inhibition at 20 µM of the first is higher: 50 to 75% for the first, 25 to 50% for the second.

First: COc1cccc(C(=O)N[C@@H]2CCO[C@]23O[C@H](CO)[C@H](O)[C@H](n2cc(-c4cc(F)c(F)c(F)c4)nn2)[C@H]3O)c1 [Compound A118, N-((4R,5S,7R,8R,9S,10R)-8,10-dihydroxy-7-(hydroxymethyl)-9-(4-(3,4,5-trifluorophenyl)-1H-1,2,3-triazol-1-yl)-1,6-dioxaspiro[4.5]decan-4-yl)-3-methoxybenzamide]
Second: O=C(N[C@@H]1CCO[C@]12O[C@H](CO)[C@H](O)[C@H](n1cc(-c3cc(F)c(F)c(F)c3)nn1)[C@H]2O)c1cccc(OC(F)(F)F)c1 [Compound A122, N-((4R,5S,7R,8R,9S,10R)-8,10-dihydroxy-7-(hydroxymethyl)-9-(4-(3,4,5-trifluorophenyl)-1H-1,2,3-triazol-1-yl)-1,6-dioxaspiro[4.5]decan-4-yl)-3-(trifluoromethoxy)benzamide]
The inhibition at 20 µM of the first is higher: over 75% for the first, 50 to 75% for the second.

Compared with O=C(N[C@@H]1CCO[C@]12O[C@H](CO)[C@H](O)[C@H](n1cc(-c3cc(F)c(F)c(F)c3)nn1)[C@H]2O)c1ccc(Oc2ccccc2)cc1 [Compound A120, N-((4R,5S,7R,8R,9S,10R)-8,10-dihydroxy-7-(hydroxymethyl)-9-(4-(3,4,5-trifluorophenyl)-1H-1,2,3-triazol-1-yl)-1,6-dioxaspiro[4.5]decan-4-yl)-4-phenoxybenzamide], O=C(N[C@@H]1CCO[C@]12O[C@H](CO)[C@H](O)[C@H](n1cc(-c3cc(F)c(F)c(F)c3)nn1)[C@H]2O)c1ccc2ccccc2c1 [Compound A129, N-((4R,5S,7R,8R,9S,10R)-8,10-dihydroxy-7-(hydroxymethyl)-9-(4-(3,4,5-trifluorophenyl)-1H-1,2,3-triazol-1-yl)-1,6-dioxaspiro[4.5]decan-4-yl)-2-naphthamide] is higher in inhibition at 20 µM: 25 to 50% for the first, 50 to 75% for the second.

Compared with O=C(N[C@@H]1CCO[C@]12O[C@H](CO)[C@H](O)[C@H](n1cc(-c3cc(F)c(F)c(F)c3)nn1)[C@H]2O)c1ccccc1-c1ccccc1 [Compound A121, N-((4R,5S,7R,8R,9S,10R)-8,10-dihydroxy-7-(hydroxymethyl)-9-(4-(3,4,5-trifluorophenyl)-1H-1,2,3-triazol-1-yl)-1,6-dioxaspiro[4.5]decan-4-yl)-[1.1′ biphenyl]-2-carboxamide], O=C(N[C@@H]1CCO[C@]12O[C@H](CO)[C@H](O)[C@H](n1cc(-c3cc(F)c(F)c(F)c3)nn1)[C@H]2O)c1cc2ccccc2o1 [Compound A123, N-((4R,5S,7R,8R,9S,10R)-8,10-dihydroxy-7-(hydroxymethyl)-9-(4-(3,4,5-trifluorophenyl)-1H-1,2,3-triazol-1-yl)-1,6-dioxaspiro[4.5]decan-4-yl)benzofuran-2-carboxamide] is higher in inhibition at 20 µM: 25 to 50% for the first, 50 to 75% for the second.

OC[C@H]1O[C@]2(OCC[C@H]2NCc2cccc(Cl)c2O)[C@H](O)[C@@H](n2cc(-c3cc(F)c(F)c(F)c3)nn2)[C@H]1O [Compound A127, (4R,5S,7R,8R,9S,10R)-4-((3-chloro-2-hydroxybenzyl)amino)-7-(hydroxymethyl)-9-(4-(3,4,5-trifluorophenyl)-1H-1,2,3-triazol-1-yl)-1,6-dioxaspiro[4.5]decane-8,10-diol] and OC[C@H]1O[C@]2(OCC[C@H]2NCc2ccc(Cl)o2)[C@H](O)[C@@H](n2cc(-c3cc(F)c(F)c(F)c3)nn2)[C@H]1O [Compound A128, (4R,5S,7R,8R,9S,10R)-4-(((5-chlorofuran-2-yl)methyl)amino)-7-(hydroxymethyl)-9-(4-(3,4,5-trifluorophenyl)-1H-1,2,3-triazol-1-yl)-1,6-dioxaspiro[4.5]decane-8,10-diol] fall in the same range of inhibition at 20 µM: 50 to 75% for the first, 50 to 75% for the second.

Same assay, conditions: Table 3, found values; compound at 20 μM; 60 nM his-galectin-3, 15 nM biotin-ASF; read-out: % Inhibitory activity (at 20 μM)

In the case of O=C(Cc1ccccc1Cl)N[C@@H]1CCO[C@]12O[C@H](CO)[C@H](O)[C@H](n1cc(-c3cc(F)c(F)c(F)c3)nn1)[C@H]2O [Compound A112, 2-(2-chlorophenyl)-N-((4R,5S,7R,8R,9S,10R)-8,10-dihydroxy-7-(hydroxymethyl)-9-(4-(3,4,5-trifluorophenyl)-1H-1,2,3-triazol-1-yl)-1,6-dioxaspiro[4.5]decan-4-yl)acetamide], the inhibition at 20 µM was 53.8%.

Same assay, conditions: read-out: % Inhibitory activity (at 20 μM), Table 1; compound at 20 μM; 60 nM his-galectin-3, 15 nM biotin-ASF

In the case of O=C(N[C@@H]1CCO[C@]12O[C@H](CO)[C@H](O)[C@H](n1cc(-c3cc(F)c(F)c(F)c3)nn1)[C@H]2O)c1cccc(Cl)c1 [Compound A119, 3-chloro-N-((4R,5S,7R,8R,9S,10R)-8,10-dihydroxy-7-(hydroxymethyl)-9-(4-(3,4,5-trifluorophenyl)-1H-1,2,3-triazol-1-yl)-1,6-dioxaspiro[4.5]decan-4-yl)benzamide], the inhibition at 20 µM was over 75%.

Same assay, conditions: read-out: % Inhibitory activity (at 20 μM), Table 3, found values; compound at 20 μM; 60 nM his-galectin-3, 15 nM biotin-ASF

Compound O=C(N[C@@H]1CCO[C@]12O[C@H](CO)[C@H](O)[C@H](n1cc(-c3cc(F)c(F)c(F)c3)nn1)[C@H]2O)c1cccc(Cl)c1 [Compound A119, 3-chloro-N-((4R,5S,7R,8R,9S,10R)-8,10-dihydroxy-7-(hydroxymethyl)-9-(4-(3,4,5-trifluorophenyl)-1H-1,2,3-triazol-1-yl)-1,6-dioxaspiro[4.5]decan-4-yl)benzamide] has an inhibition at 20 µM of 93.7%.
